Read-outs that look alike come from different tables or passages of the source.
Key:
[1] = Liver microsome stability, human; assay type: in vitro ADME; conditions: for microsomal CLint at 3 μM: human liver microsomes; for half-life at 3 μM / remaining at 0.5 h, 3 µM: liver microsomes; for half-life at 3 μM: incubation up to 30 min, read-out: liver microsome stability T1/2, human; for remaining at 0.5 h, 3 µM: over the assay time course (30 min), read-out: % remaining, human LMs
Protocol: Human liver microsomes (HLMs, 20 mg/mL) and CD-1 mouse liver microsomes (MLMs, 20 mg/mL) were purchased from Xenotech. NADPH was purchased from Sigma-Aldrich and prepared in 10 mM stock solutions of distilled H2O (Invitrogen UltraPure). Verapamil and diphenhydramine were both purchased from Sigma-Aldrich and served as positive controls for HLM and MLM stability, respectively. Test compounds and positive controls were initially dissolved in DMSO to make 10 mM stock solutions. Sample solutions were then further diluted in 70% MeOH/H2O or 100% MeCN to 500 μM. Next, the reactions were prepared by mixing human or mouse liver microsomes (55 μL) with potassium phosphate buffer (100 mM, […]) in 1.5 mL Eppendorf tubes. The test compounds (6.6 μL of 500 μM solution) were subsequently added to the suspensions, and the reaction mixtures were incubated at 37 °C for 5 min. Afterward, the liver microsome reactions were initiated with 110 μL of 10 mM NADPH and further incubated at 37 °C for the designated time course of the study. This procedure provided experiments with a final volume of 1100 μL (<0.6% organic solvent content), a concentration for HLMs and MLMs of 1 mg/mL, and a final test compound concentration of 3 μM. Aliquots (100 μL) were removed from each reaction mixture in duplicate at 0, 5, 10, 15, and 30 min time intervals and quenched with 100 μL of cold internal standard solution (ISTD, 2 μM 7-ethoxy-d5-coumarin in MeOH or MeCN). Quenched aliquots were then centrifuged at 12 500 g for 5–10 min, and the resulting supernatants were withdrawn and placed in LC-MS vials to be analyzed by LC-MS/MS (Agilent G6460C QQQ MS coupled with an Infinity II 1260 HPLC). Each test compound was run in tandem with positive and negative control experiments for quality assurance. Positive control reactions were conducted at a final volume of 550 μL for a single run at each time point. Lastly, the negative control experiment was conducted with test compounds and liver microsomes in the absence of NADPH (150 μL) and analyzed at the 30 min time point.
(§1) For both LM and plasma assays, each data point was analyzed in triplicate using between blank washes to avoid carry over and to equilibrate the column for the subsequent runs. Averages of these triplicates for individual compounds at each time point were then normalized to the data at 0 min, representing 100% of the test compound remaining or 0% metabolism. Half-lives (t1/2) were calculated by plotting ln of % test compound remaining versus time and performing linear regression to determine slope. Slope = −k and t1/2 = 0.693/k for first-order kinetics (see Figures S5 and S6 for a representative example).

Plasma stability, human = assay type: in vitro ADME; conditions: both sexes; for half-life at 3 μM: human plasma, incubation up to 120 min, read-out: plasma stability T1/2, human; for remaining at 120 min, 3 µM: plasma, over the assay time course
Protocol: Human plasma (lithium heparin (LiHep) mixed, gender pooled, 0.2 μm filtered) and mouse plasma (BALB/C, LiHep mixed, male pooled, 0.2 μm filtered) were purchased from BioIVT. Procaine (Sigma-Aldrich) served as a positive control for both human and mouse plasma experiments. Test compounds and positive controls were initially dissolved in DMSO to make 10 mM stock solutions. The solutions of test and control compounds were then further diluted in 70% MeOH/H2O or 100% MeCN to 500 μM. Next, the human or mouse plasma (994 μL) was aliquoted into 1.5 mL Eppendorf tubes with duplicates (reactions A and B) being prepared for each compound. The plasma was then incubated at 37 °C for 10 min. Afterward, the reaction was initiated by the addition of the test compound (6 μL of 500 μM solution) and further incubated at 37 °C for the designated time course of the study. This procedure provided duplicate experiments with a final volume of 1000 μL (<0.6% organic solvent content) and a final test compound concentration of 3 μM. Aliquots (100 μL) were removed from each reaction mixture at 0, 15, 30, 60, and 120 min time intervals and quenched with 150 μL of cold ISTD solution (2 μM 7-ethoxy-d5-coumarin in MeOH or MeCN). Quenched aliquots were then centrifuged at 15,000 g for 30–45 min, and the resulting supernatants (∼70 μL) were withdrawn and placed in LC-MS vials to be analyzed by LC-MS/MS (Agilent G6460C QQQ MS coupled with an Infinity II 1260 HPLC). Each test compound was run in tandem with positive and negative control experiments for quality assurance. The positive control reaction was conducted at a final volume of 1000 μL for a single run at each time point. Finally, the negative control experiment was conducted with test compounds in DPBS (143 μL) and analyzed at the 120 min time point.
as §1

[2] = Brain homogenate tissue binding and stability (RED device); assay type: in vitro ADME, mouse; conditions: for remaining at 4 h, 5 µM / fraction unbound at 4 h, 5 µM: C57BL/6, mouse, brain homogenate (4 times diluted); for remaining at 4 h, 5 µM: pH 7.4, starting concentration 5 μM; for recovery at 4 h, 5 μM: C57BL/6, pH 7.4, mouse brain tissue binding; for Average 2i Concentration, Buffer_Mice: buffer chamber after 4 h dialysis; for Average 2i Concentration, Brain_Mice: brain homogenate chamber after 4 h dialysis; for Average 2i Concentration, Brain_St_0Hr_Mice / Average 2i Concentration, Brain_St_4Hr_Mice: brain homogenate stability sample; for Average 2i Concentration, Brain_St_0Hr_Mice: 0 h
Protocol: Carbamazepine (Apin Chemicals) served as a positive control for brain tissue binding. Test compounds and the positive control were initially dissolved in DMSO to make 1 mM stock solutions. […] A rapid equilibrium dialysis (RED) device (Thermo Scientific) containing a dialysis membrane with a molecular weight cutoff of 8000 Da was used to assess tissue binding and metabolic stability. […] The test compounds and positive control (200 μL of 5 μM solution) were added to the red chamber of the dialysis insert, while the white chamber was filled with dialysis buffer (350 μL). The RED device was then sealed with an adhesive film and incubated at 37 °C with shaking (300 rpm) for 4 h. For the initial time point (t = 0 min), 50 μL aliquots of test compounds and the positive control were added to 96-deep well plates (0.7 mL per well) and quenched with 400 μL of MeCN. Following dialysis, another 50 μL aliquot of the tested samples was removed from each well (brain homogenate and buffer) and diluted with an equal volume of the opposite matrix to nullify any matrix effects. […] The supernatant (100 μL) was subsequently transferred to 96-deep well plates for LC-MS/MS analysis. Prodrug metabolism and 2i concentrations were determined by fit-for-purpose LC-MS/MS methods on a nine-point calibration curve ranging from 0.12 to 7.5 μM.

[3] = pH 7.4, mouse brain tissue binding (free fraction in brain), read-out: % Unbound
[4] = pH 7.4, mouse brain tissue binding, RED, 4 h, read-out: % Bound Mean ± SD (converted)
[5] = pH 7.4, mouse brain tissue binding, RED, 4 h, read-out: % Bound R1 (converted)
[6] = pH 7.4, mouse brain tissue binding, RED, 4 h, read-out: % Bound R2 (converted)

| Compound | microsomal CLint at 3 μM [1] [µL/min/mg] | half-life at 3 μM [1] [min] | half-life at 3 μM (Plasma stability, human) [min] | remaining at 4 h, 5 µM ([2]; 4 h) [%] | recovery at 4 h, 5 μM ([2]; RED, 4 h) [%] | Average 2i Concentration, Buffer_Mice [2] | fraction unbound at 4 h, 5 µM [2, 3] | fraction unbound at 4 h, 5 µM [2, 4] | fraction unbound at 4 h, 5 µM [2, 5] | fraction unbound at 4 h, 5 µM [2, 6] | Average 2i Concentration, Brain_Mice [2] | Average 2i Concentration, Brain_St_0Hr_Mice [2] | Average 2i Concentration, Brain_St_4Hr_Mice ([2]; 4 h) | remaining at 0.5 h, 3 µM [1] [%] | remaining at 120 min, 3 µM (Plasma stability, human) [%] | fraction unbound at 4 h, 5 µM ([2]; pH 7.4, mouse brain tissue binding, read-out: fu) | metabolized in brain homogenate (% of prodrug) ([2]; after 4 h) [%] |
| --- | --- | --- | --- | --- | --- | --- | --- | --- | --- | --- | --- | --- | --- | --- | --- | --- | --- |
| O=C(CC(F)(F)C(=O)N1N=C(c2c(-c3ccc(Cl)cc3)c3ccccc3[nH]c2=O)CC1c1ccc(Cl)cc1)OCc1ccccc1 (stereo not drawn) [2p] | 105 | 6.6 | > 120 | 31 | 33 | BLQ |  |  |  |  |  |  |  |  |  |  |  |
| CC(C)(C)COC(=O)CC(F)(F)C(=O)N1N=C(c2c(-c3ccc(Cl)cc3)c3ccccc3[nH]c2=O)CC1c1ccc(Cl)cc1 (stereo not drawn) [2o] | 187 | 3.7 | > 120 | 53 | 44 | BLQ |  |  |  |  |  | BLQ |  |  |  |  |  |
| O=C(O)CCC(=O)N1N=C(c2c(-c3ccc(Cl)cc3)c3ccccc3[nH]c2=O)CC1c1ccc(Cl)cc1 (stereo not drawn) [2a] | < 23 | > 30 | > 120 | 94 | 100 |  | 0.002 | 0.002 | 0.001 | 0.002 |  |  |  | > 95 | > 95 | 0.002 |  |
| O=C(CC(F)(F)C(=O)N1N=C(c2c(-c3ccc(Cl)cc3)c3ccccc3[nH]c2=O)CC1c1ccc(Cl)cc1)OCC1CC1 (stereo not drawn) [2n] | 289 | 2.4 | > 120 | 25 | 29 | BLQ |  |  |  |  |  | BLQ |  |  |  |  |  |

The next lines start with the values.

| microsomal CLint at 3 μM [1] [µL/min/mg] | half-life at 3 μM [1] [min] | half-life at 3 μM (Plasma stability, human) [min] | remaining at 4 h, 5 µM ([2]; 4 h) [%] | recovery at 4 h, 5 μM ([2]; RED, 4 h) [%] | Average 2i Concentration, Buffer_Mice [2] | fraction unbound at 4 h, 5 µM [2, 3] | fraction unbound at 4 h, 5 µM [2, 4] | fraction unbound at 4 h, 5 µM [2, 5] | fraction unbound at 4 h, 5 µM [2, 6] | Average 2i Concentration, Brain_Mice [2] | Average 2i Concentration, Brain_St_0Hr_Mice [2] | Average 2i Concentration, Brain_St_4Hr_Mice ([2]; 4 h) | remaining at 0.5 h, 3 µM [1] [%] | remaining at 120 min, 3 µM (Plasma stability, human) [%] | fraction unbound at 4 h, 5 µM ([2]; pH 7.4, mouse brain tissue binding, read-out: fu) | metabolized in brain homogenate (% of prodrug) ([2]; after 4 h) [%] | Compound |
| --- | --- | --- | --- | --- | --- | --- | --- | --- | --- | --- | --- | --- | --- | --- | --- | --- | --- |
| 165 | ≤ 7 | > 120 | 93 | 90 | BLQ | < 0.001 | < 0.001 | < 0.001 | < 0.001 | BLQ | BLQ | BLQ |  |  |  |  | CN(C)C(=O)CC(F)(F)C(=O)N1N=C(c2c(-c3ccc(Cl)cc3)c3ccccc3[nH]c2=O)CC1c1ccc(Cl)cc1 (stereo not drawn) [2r] |
| 193 | 3.6 | > 120 | 43 | 41 | BLQ |  |  |  |  |  |  |  |  |  |  |  | CCOC(=O)CC(F)(F)C(=O)N1N=C(c2c(-c3ccc(Cl)cc3)c3ccccc3[nH]c2=O)CC1c1ccc(Cl)cc1 (stereo not drawn) [2l] |
| 104 | ≤ 7 | > 120 | 33 | 30 | BLQ |  |  |  |  | BLQ | BLQ | BLQ |  |  |  |  | CNC(=O)CC(F)(F)C(=O)N1N=C(c2c(-c3ccc(Cl)cc3)c3ccccc3[nH]c2=O)CC1c1ccc(Cl)cc1 (stereo not drawn) [2q] |
| < 23 | > 30 | > 120 | 44 | 41 |  |  |  |  |  |  |  |  | > 90 |  |  | 56 | NC(=O)CC(F)(F)C(=O)N1N=C(c2c(-c3ccc(Cl)cc3)c3ccccc3[nH]c2=O)CC1c1ccc(Cl)cc1 (stereo not drawn) [2k] |
| < 23 | > 30 | > 120 | 105 | 57 |  | < 0.001 | < 0.001 | < 0.001 | < 0.001 |  |  |  | > 95 | > 95 |  |  | O=C(O)CC(F)(F)C(=O)N1N=C(c2c(-c3ccc(Cl)cc3)c3ccccc3[nH]c2=O)CC1c1ccc(Cl)cc1 (stereo not drawn) [2i] |
| 173 | 4 | > 120 | 56 | 51 | BLQ |  |  |  |  |  |  |  |  |  |  |  | CC(C)OC(=O)CC(F)(F)C(=O)N1N=C(c2c(-c3ccc(Cl)cc3)c3ccccc3[nH]c2=O)CC1c1ccc(Cl)cc1 (stereo not drawn) [2m] |
